# Molecular target: human FPR2 receptor (Homo sapiens (Human), UniProt P25090)
# Experiment: FLIPR Ca+2 response in HEK-Gα16 cells stably expressing the human FPR2 receptor
# Format: cell-based
# Set-up: FPR2 (% eff): unit not given here
# Details: Table 4; value in brackets, given mostly as fraction
# How it was run: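 HEK-Gα16 cells stably expressing human FPR2, loaded with 2 μM Fluo-4 in HBSS/20 mM HEPES for 40 min at 37° C., then washed. Ligands added in HBSS/Hepes and Ca+2 responses recorded on FLIPR in relative fluorescence units.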
# Chain of human FPR2 receptor (P25090 whole entry): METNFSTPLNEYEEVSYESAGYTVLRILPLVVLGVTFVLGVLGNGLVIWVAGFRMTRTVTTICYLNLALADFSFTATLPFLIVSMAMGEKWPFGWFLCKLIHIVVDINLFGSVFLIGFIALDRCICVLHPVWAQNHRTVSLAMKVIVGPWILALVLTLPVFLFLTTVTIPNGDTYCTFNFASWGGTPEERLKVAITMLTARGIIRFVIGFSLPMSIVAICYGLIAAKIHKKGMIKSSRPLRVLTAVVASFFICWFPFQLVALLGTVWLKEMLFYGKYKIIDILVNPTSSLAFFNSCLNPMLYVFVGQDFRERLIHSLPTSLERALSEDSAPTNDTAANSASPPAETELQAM
row,Compound,FPR2 (% eff)
1,"CC(C)C1(CC(=O)NCCC(=O)O)NC(=O)N(NC(=O)Nc2ccc(Br)cc2)C1=O (stereo not drawn) [Compound 147, 3-({[1-{[(4-bromophenyl)carbamoyl]amino}-2,5-dioxo-4-(propan-2-yl)imidazolidin-4-yl]acetyl}amino)propanoic acid]",0.99
2,"CC(C)C1(CC(=O)NCCO)NC(=O)N(NC(=O)Nc2ccc(Br)cc2F)C1=O (stereo not drawn) [Compound 148, 2-[1-{[(4-bromo-2-fluorophenyl)carbamoyl]amino}-2,5-dioxo-4-(propan-2-yl)imidazolidin-4-yl]-N-(2-hydroxyethyl)acetamide]",0.98
3,"CCOC(=O)CCC1(C(C)C)NC(=O)N(NC(=O)Nc2ccc(Br)cc2)C1=O (stereo not drawn) [Compound 149, ethyl 3-[1-{[(4-bromophenyl)carbamoyl]amino}-2,5-dioxo-4-(propan-2-yl)imidazolidin-4-yl]propanoate]",0.94
4,"CC(C)C1(CCc2ccccc2C(=O)O)NC(=O)N(NC(=O)Nc2ccc(Br)cc2)C1=O (stereo not drawn) [Compound 151, 2-{2-[1-{[(4-bromophenyl)carbamoyl]amino}-2,5-dioxo-4-(propan-2-yl)imidazolidin-4-yl]ethyl}benzoic acid]",1.0
5,"CCOP(=O)(CCNC(=O)CC1(C(C)C)NC(=O)N(NC(=O)Nc2ccc(Br)cc2)C1=O)OCC (stereo not drawn) [Compound 152, diethyl [2-({[1-{[(4-bromophenyl)carbamoyl]amino}-2,5-dioxo-4-(propan-2-yl)imidazolidin-4-yl]acetyl}amino)ethyl] phosphonate]",1.0
6,"CCOC(=O)C1CCC2(CC1)NC(=O)N(NC(=O)Nc1ccc(Br)cc1)C2=O (stereo not drawn) [Compound 153, ethyl 3-{[(4-bromophenyl)carbamoyl]amino}-2,4-dioxo-1,3-diazaspiro[4.5]decane-8-carboxylate]",0.99
7,"CC(C)C[C@H](NC(=O)Nc1ccc(Br)cc1)C(=O)N(C)CC(=O)OC(C)(C)C [Compound 154, tert-butyl {[(2S)-2-{[(4-bromophenyl)carbamoyl]amino}-4-methylpentanoyl](methyl)amino}acetate]",0.85
8,"CC(C)C[C@H](NC(=O)Nc1ccc(Br)cc1)C(=O)N(C)CC(=O)O [Compound 155, {[(2S)-2-{[(4-bromophenyl)carbamoyl]amino}-4-methylpentanoyl](methyl)amino}acetic acid]",1.0
9,"CC(C)C[C@H](NC(=O)Nc1ccc(C(F)(F)F)cc1)C(=O)NCS(=O)(=O)O [Compound 237, {[(2S)-4-methyl-2-({[4-(trifluoromethyl)phenyl]carbamoyl}amino)pentanoyl]amino}methanesulfonic acid]",0.99

# Molecular target: FPRL-1 (Homo sapiens (Human), UniProt P25090)
# Experiment: FPRL-1 Ga16-CHO EC50 (efficacy)
# Format: cell-based
# Details: Table 1
# Chain of FPRL-1 (P25090 whole entry): as above
row,Compound,EC50
1,O=C(Nc1ccc(Br)cc1)NC(Cc1ccccc1)C(=O)O (stereo in doubt) [(2S)-2-({[(4-bromophenyl)amino]carbonyl}amino)-3-phenylpropanoic acid],0.031 µM

# Same assay, conditions: Table 1; value in brackets
row,Compound,FPRL-1 Ga16-CHO (efficacy)
1,O=C(Nc1ccc(Br)cc1)NC(Cc1ccccc1)C(=O)O (stereo in doubt) [(2S)-2-({[(4- bromophenyl)amino]carbonyl}amino)- 3-phenylpro] [(2S)-2-({[(4-bromophenyl)amino]carbonyl}amino)-3-phenylpropanoic acid],1.0
2,"COc1ccc(NC(=O)NC(Cc2ccccc2)C(=O)O)cc1OC (stereo not drawn) [2-({[(3,4-dimethoxyphenyl)amino]carbonyl}amino)-3-phenylpropanoic acid]",0.72
3,O=C(Nc1ccc(Br)cc1)NC(Cc1c[nH]c2ccccc12)C(=O)O (stereo not drawn) [2-({[(4-bromophenyl)amino]carbonyl}amino)-3-(1H-indol-3-yl)propanoic acid],0.89
4,O=C(Nc1ccc(Cl)cc1)NC(Cc1ccccc1)C(=O)O (stereo not drawn) [2-({[(4-chlorophenyl)amino]carbonyl}amino)-3-phenylpropanoic acid],1.0
5,O=C(Nc1ccc(OC(F)(F)F)cc1)NC(Cc1ccccc1)C(=O)O (stereo not drawn) [3-phenyl-2-[({[4-(trifluoromethoxy)phenyl]amino}carbonyl)amino]propanoic acid],0.79
6,O=C(Nc1ccc(Br)cc1)N[C@H](Cc1ccccc1)C(=O)O [(2R)-2-({[(4- bromophenyl)amino]carbonyl}amino)- 3-phenylpro] [(2R)-2-({[(4-bromophenyl)amino]carbonyl}amino)-3-phenylpropanoic acid],0.99
7,"O=C(Nc1ccc(Cl)c(Cl)c1)N[C@@H](Cc1ccccc1)C(=O)O [(2S)-2-({[(3,4-dichlorophenyl)amino]carbonyl}amino)-3-phenylpropanoic acid]",0.57
8,CC(C)[C@H](NC(=O)Nc1ccc(Br)cc1F)C(=O)O [(2S)-2-({[(4-bromo-2-fluorophenyl)amino]carbonyl}amino)-3-methylbutanoic acid],0.91
9,CC(C)[C@H](NC(=O)Nc1ccc(Br)cc1)C(=O)O [(2S)-2-({[(4-bromophenyl)amino]carbonyl}amino)-3-methylbutanoic acid],0.91
10,COc1ccc(NC(=O)N[C@@H](Cc2ccccc2)C(=O)O)cc1 [(2S)-2-({[(4-methoxyphenyl)amino]carbonyl}amino)-3-phenylpropanoic acid],0.90
11,O=C(Nc1ccc(C(F)(F)F)cc1)N[C@@H](Cc1ccccc1)C(=O)O [(2S)-3-phenyl-2-[({[4-(trifluoromethyl)phenyl]amino}carbonyl)amino]propanoic acid],0.97
12,O=C(Nc1ccc(Br)cc1)N[C@H](C(=O)O)c1ccccc1 [(2S)-({[(4-bromophenyl)amino]carbonyl}amino) (phenyl)acetic acid],0.94
13,"CC[C@H](C)[C@H](NC(=O)Nc1ccc(Br)cc1)C(=O)O [(2S,3S)-2-({[(4-bromophenyl)amino]carbonyl}amino)-3-methylpentanoic acid]",0.89

# Same assay, conditions: Table 2; value in brackets
row,Compound,FPRL-1 Ga16-CHO (efficacy)
1,"CC1(CCc2ccccc2)NC(=O)N(NC(=O)Nc2ccccc2F)C1=O (stereo not drawn) [1-(2-fluorophenyl)-3-[4-methyl-2,5-dioxo-4-(2-phenylethyl)imidazolidin-1-yl]urea]",0.94
2,"O=C(Nc1ccc(Cl)cc1)NN1C(=O)NC2(CCCCC2)C1=O [1-(4-chlorophenyl)-3-(2,4-dioxo-1,3-diazaspiro[4,5]decan-3-yl) urea]",0.98
3,"CCC1(C)NC(=O)N(NC(=O)Nc2ccc(Cl)cc2)C1=O (stereo not drawn) [1-(4-chlorophenyl)-3-(4-ethyl-4-methyl-2,5-dioxoimidazolidin-1-yl)urea]",0.96
4,"Cc1ccc(NC(=O)NN2C(=O)NC3(CCC(C)CC3)C2=O)cc1 (stereo not drawn) [1-(8-methyl-2,4-dioxo-1,3-diazaspiro[4,5]decan-3-yl)-3-(p-tolyl)urea]",0.91
5,"CC1(CCc2ccccc2)NC(=O)N(NC(=O)Nc2ccccc2)C1=O (stereo not drawn) [1-[4-methyl-2,5-dioxo-4-(2-phenylethyl)imidazolidin-1-yl]-3-phenylurea]",1.0

# Same assay, conditions: Table 3; value in brackets
row,Compound,FPRL-1 Gal16-CHO (efficacy)
1,"O=C(CN1C(=O)C2CC=CCC2C1=O)Nc1ccc(Br)cc1 (stereo not drawn) [N-(4-bromophenyl)-1,3,3a,4,7,7a-hexahydro-1,3-dioxo-2H-isoindole-2-acetamide]",0.98
2,"O=C(CN1C(=O)C2C3C=CC(C3)C2C1=O)Nc1ccc(Br)cc1 (stereo not drawn) [N-(4-bromophenyl)-1,3,3a,4,7,7a-hexahydro-1,3-dioxo-4,7-methano-2H-isoindole-2-acetamide]",0.90

# Source: patent US10434112B2, “Use of agonists of formyl peptide receptor 2 for treating dermatological diseases” (Allergan, Inc., priority 2013, dated 2019)
